For one compound, IC50 results are on record in patent US7202245B2, “Substituted 4-amino[1,2,4]triazolo[4,3-a] quinoxalines” (Pfizer Inc., priority 2003, dated 2007).

The experiment concerns the target T1, GSK-3 (Homo sapiens, UniProt P49841).
T1 construct: made in house; as in Stambolic et al. 1996
In words: GSK-3 inhibition, cell-free 33P-ATP peptide substrate assay. The class given is biochemical. The following applies: read-out: inhibitory activity, expressed as IC50's, against GSK-3. As to the method: The specific activities of the compounds of formula (I) in inhibiting GSK-3 can be determined in both cell-free and cell-based assays, both of which have been previously described in the relevant art. See, for example, U.S. Pat. Nos. 6,417,185 and 6,489,344, the disclosures of which are incorporated herein by reference in their entirety.
A cell-free testing assay can be generally carried out by incubating GSK-3 with a peptide substrate, radiolabeled ATP (e.g., for example, […], both of which are available from Amersham; Arlington Heights, Ill.), magnesium ions, and the compound to be assayed. […] The amount of γ^33P or γ^32P remaining in each well after washing is then quantified to determine the amount of radiolabeled phosphate incorporated into the peptide substrate. […]
Another example of a GSK-3 testing assay, similar to the one described hereinabove, is as follows: enzyme activities are assayed as the incorporation of ^33P from the gamma phosphate of ^33P-ATP (Amersham; Arlington Heights, Ill.; catalog #AH-9968) into biotinylated peptide substrate PKTP-KKAKKL. […] The final concentration of ATP is 0.5 μM (final specific radioactivity of 4 μCi/nmol), and the final concentration of substrate is 0.75 μM. […] Radioactivity associated with the beads is then quantified by standard scintillation counting. […]

T1 sequence (P49841 whole entry): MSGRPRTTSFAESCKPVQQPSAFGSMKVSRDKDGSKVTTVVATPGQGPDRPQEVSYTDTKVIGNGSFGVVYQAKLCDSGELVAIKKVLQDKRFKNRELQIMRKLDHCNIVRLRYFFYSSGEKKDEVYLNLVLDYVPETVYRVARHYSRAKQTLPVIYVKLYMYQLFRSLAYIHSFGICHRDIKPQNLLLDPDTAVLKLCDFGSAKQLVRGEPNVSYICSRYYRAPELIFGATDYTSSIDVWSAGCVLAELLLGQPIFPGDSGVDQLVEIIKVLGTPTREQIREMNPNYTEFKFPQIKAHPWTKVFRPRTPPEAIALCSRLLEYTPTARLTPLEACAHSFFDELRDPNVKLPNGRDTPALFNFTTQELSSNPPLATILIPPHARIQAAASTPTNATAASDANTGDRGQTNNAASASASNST

As for `O=c1[nH]nc2c(NCCNc3ccc(C(F)(F)F)cn3)nc3ccc(F)cc3n12` [Example 71, 8-Fluoro-4-[2-(5-trifluoromethyl-pyridin-2-Ylamino)-ethylamino]-2H-[1,2,4]triazolo[4,3-a]quinoxalin-1-one], the IC50 (usually the concentration that inhibits the measured activity by half) is 6 nM.
